Earlier results as cited in article PMC3222680 (PLoS ONE, 2011).

System: α1 β GlyRs with cysteine mutations in the M2–M3 loop of the β subunit
Details: cysteine-substituted α1 β GlyRs (β subunit M2–M3 loop) ref 22; cited from earlier work

In the case of `C[N+](C)(C)CCSS(C)(=O)=O` [MTSET, 2-trimethylammoniumethylmethane thiosulfonate], the “channel function in response to MTSET treatment” value is given as “did not change”.
